Results: patent publication US9351974B2, “Substituted pteridinones for the treatment of cancer” (OSI Pharmaceuticals, LLC, priority 2011, dated 2016)

Biological target: T1, His-tagged full-length RSK2 (RPS6KA3) (Homo sapiens, UniProt P51812)
T1 construct: His-tagged full-length RSK2 (RPS6KA3, Invitrogen PV3323); His; purchased Invitrogen PV3323
Assay: RSK2 Omnia Assay for compound IC50 determination
Type: biochemical
Conditions: ATP 15 μM, n=2, read-out: Mean RSK2 Biochem IC50
Protocol: RSK1 & RSK2 Omnia Assay Protocol for Compound IC50 Determination
The Omnia Assay (Invitrogen) has been optimized for His-tagged full length RSK1 (RPS6KA1, Millipore 14-509) and for His-tagged full-length RSK2 (RPS6KA3, Invitrogen PV3323). In this assay system, Omnia ST Peptide 6 (Invitrogen KNZ1061) functions as a substrate for RSK1 or RSK2. Phosphorylation of this SOX-containing peptide results in an increase in fluorescence at 485 nm upon excitation at 360 nm.
Assays are carried out in 384-well OptiPlates (Perkin Elmer 6007290) in a total volume of 20 μL containing RSK1 ([…]) or RSK2 ([…]), Omnia ST Peptide 6 (5 μM), ATP (15 μM, Km=16.3 μM), and test compound (variable) in RSK assay buffer (50 mM HEPES, pH 7.5, 10 mM MgCl2, 0.01% Tween-20, 1% glycerol, 1 mM DTT, 1 mM EGTA, 0.01% BSA) with 1% DMSO.
IC50s for test compounds are typically determined using an 11-point three-fold serial dilution with a final assay concentration ranging either from 170 μM to […] or from 17 μM to […]. All compound concentrations are assayed in duplicate. Initial compound dilutions are prepared at 100× concentration in 100% DMSO from a 10 mM stock solution. Compounds are further diluted 1:25 in assay buffer resulting in a 4× concentrated solution.
To run the assay 5 μL of the above 4× concentrated compound solution (or 4% DMSO for positive controls) is added to the assay plate followed by 5 μL of a solution containing peptide (20 μM) and ATP (60 μM) in assay buffer. The reaction is initiated by the addition of 10 μL of RSK1 ([…]) or RSK2 ([…]) in assay buffer, or assay buffer alone for negative controls. The increase in fluorescence due to peptide phosphorylation is monitored continuously as a function of time using a Spectramax M5 plate reader (Molecular Devices) equipped with SoftMax Pro software.
The slopes from the linear portion of progress curves are used to determine IC50 values by non-linear curve-fitting to a four-parameter equation using GraphPad Prism (GraphPad Software, Inc.) or XLFit (IDBS). IC50's are determined in duplicate (n=2) and Ki values are calculated from IC50 values using the Cheng-Prusoff equation assuming a competitive mode of inhibition.

T1 sequence (P51812 whole entry): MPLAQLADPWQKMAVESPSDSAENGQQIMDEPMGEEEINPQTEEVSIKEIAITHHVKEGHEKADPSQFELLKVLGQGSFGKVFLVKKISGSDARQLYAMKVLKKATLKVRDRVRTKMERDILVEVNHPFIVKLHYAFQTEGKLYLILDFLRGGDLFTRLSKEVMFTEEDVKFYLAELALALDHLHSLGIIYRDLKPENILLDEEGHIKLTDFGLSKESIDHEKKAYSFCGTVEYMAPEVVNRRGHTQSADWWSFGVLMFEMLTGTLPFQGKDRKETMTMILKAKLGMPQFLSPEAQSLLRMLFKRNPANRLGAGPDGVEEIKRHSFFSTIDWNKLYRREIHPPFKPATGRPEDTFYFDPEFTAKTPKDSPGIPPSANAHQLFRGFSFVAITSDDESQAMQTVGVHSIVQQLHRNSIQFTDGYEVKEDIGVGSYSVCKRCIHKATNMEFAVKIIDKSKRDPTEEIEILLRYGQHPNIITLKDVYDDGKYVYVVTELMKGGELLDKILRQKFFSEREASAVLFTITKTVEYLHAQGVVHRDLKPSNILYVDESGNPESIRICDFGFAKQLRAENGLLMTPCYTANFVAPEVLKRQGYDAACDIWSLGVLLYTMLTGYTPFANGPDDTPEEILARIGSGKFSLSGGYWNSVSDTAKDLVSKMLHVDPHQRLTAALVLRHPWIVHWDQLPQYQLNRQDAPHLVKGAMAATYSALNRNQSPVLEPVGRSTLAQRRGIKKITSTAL

| SMILES | IC50 [nM] |
| --- | --- |
| CC(C)CCN1c2nc(N[C@H]3CC[C@H](O)CC3)ncc2N(c2ccccc2)C(=O)C1C (relative stereo) [Example 11, 2-[(trans-4-hydroxycyclohexyl)amino]-7-methyl-8-(3-methylbutyl)-5-phenyl-7,8-dihydropteridin-6(5H)-one] | > 1000 |
| CC(C)CCN1c2nc(Nc3ccc4[nH]ncc4c3)ncc2N(c2ccccc2)C(=O)C1C (stereo not shown) [Example 1, 2-(1H-indazol-5-ylamino)-7-methyl-8-(3-methylbutyl)-5-phenyl-7,8-dihydropteridin-6(5H)-one] | ≤ 100 |
| CC(C)CCN1c2nc(Nc3cc(F)c(O)c(F)c3)ncc2N(c2ccccc2)C(=O)C1C (stereo not shown) [Example 2, 2-[(3,5-difluoro-4-hydroxyphenyl)amino]-7-methyl-8-(3-methylbutyl)-5-phenyl-7,8-dihydropteridin-6(5H)-one] | ≤ 100 |
| CC(C)CCN1c2nc(Nc3ccc4c(c3)CC(=O)N4)ncc2N(c2ccccc2)C(=O)C1C (stereo not shown) [Example 3, 7-methyl-8-(3-methylbutyl)-2-[(2-oxo-2,3-dihydro-1H-indol-5-yl)amino]-5-phenyl-7,8-dihydropteridin-6(5H)-one] | ≤ 100 |
| CCOP(=O)(Cc1ccc(Nc2ncc3c(n2)N(CCC(C)C)C(C)C(=O)N3c2ccccc2)cc1)OCC (stereo not shown) [Example 4, diethyl (4-{[7-methyl-8-(3-methylbutyl)-6-oxo-5-phenyl-5,6,7,8-tetrahydropteridin-2-yl]amino}benzyl)phosphonate] | > 1000 |
| CNC(=O)Cc1ccc(Nc2ncc3c(n2)N(CCC(C)C)C(C)C(=O)N3c2ccccc2)cc1 (stereo not shown) [Example 5, N-methyl-2-(4-{[7-methyl-8-(3-methylbutyl)-6-oxo-5-phenyl-5,6,7,8-tetrahydropteridin-2-yl]amino}phenyl)acetamide] | 100 to 1000 |
| CNS(=O)(=O)Cc1ccc(Nc2ncc3c(n2)N(CCC(C)C)C(C)C(=O)N3c2ccccc2)cc1 (stereo not shown) [Example 7, N-methyl-1-(4-{[7-methyl-8-(3-methylbutyl)-6-oxo-5-phenyl-5,6,7,8-tetrahydropteridin-2-yl]amino}phenyl)methanesulfonamide] | > 1000 |
| COC(=O)c1cccc(Nc2ncc3c(n2)N(CCC(C)C)C(C)C(=O)N3c2ccccc2)c1 (stereo not shown) [Example 10, methyl 3-{[7-methyl-8-(3-methylbutyl)-6-oxo-5-phenyl-5,6,7,8-tetrahydropteridin-2-yl]amino}benzoate] | > 1000 |
| CC(C)CCN1c2nc(Nc3ccc(C(=O)O)cc3)ncc2N(c2ccccc2)C(=O)C1C (stereo not shown) [Example 14, 4-{[7-methyl-8-(3-methylbutyl)-6-oxo-5-phenyl-5,6,7,8-tetrahydropteridin-2-yl]amino}benzoic acid] | ≤ 100 |
| CC(C)CCN1c2nc(Nc3cccc(C(=O)O)c3)ncc2N(c2ccccc2)C(=O)C1C (stereo not shown) [Example 15, 3-{[7-methyl-8-(3-methylbutyl)-6-oxo-5-phenyl-5,6,7,8-tetrahydropteridin-2-yl]amino}benzoic acid] | > 1000 |
| CC(C)CCN1c2nc(Nc3ccc4[nH]ncc4c3)ncc2N(c2ccccc2)C(=O)[C@H]1C [Example 16, (7R)-2-(1H-indazol-5-ylamino)-7-methyl-8-(3-methylbutyl)-5-phenyl-7,8-dihydropteridin-6(5H)-one] | ≤ 100 |
| CC(C)CCN1c2nc(Nc3ccc4[nH]ncc4c3)ncc2N(c2ccccc2)C(=O)[C@@H]1C [Example 17, (7S)-2-(1H-indazol-5-ylamino)-7-methyl-8-(3-methylbutyl)-5-phenyl-7,8-dihydropteridin-6(5H)-one] | ≤ 100 |
| C[C@@H]1C(=O)N(c2ccccc2)c2cnc(Nc3ccc4[nH]ncc4c3)nc2N1C1CCCCC1 [Example 18, (7R)-8-cyclohexyl-2-(1H-indazol-5-ylamino)-7-methyl-5-phenyl-7,8-dihydropteridin-6(5H)-one] | ≤ 100 |
| C[C@@H]1C(=O)N(c2ccc(C#N)cc2)c2cnc(Nc3ccc4[nH]ncc4c3)nc2N1C1CCCCC1 [Example 19, 4-[(7R)-8-cyclohexyl-2-(1H-indazol-5-ylamino)-7-methyl-6-oxo-7,8-dihydropteridin-5(6H)-yl]benzonitrile] | ≤ 100 |
| Cc1ccc(N2C(=O)[C@@H](C)N(C3CCCCC3)c3nc(Nc4ccc5[nH]ncc5c4)ncc32)cc1 [Example 22, (7R)-8-cyclohexyl-2-(1H-indazol-5-ylamino)-7-methyl-5-(4-methylphenyl)-7,8-dihydropteridin-6(5H)-one] | ≤ 100 |
| C[C@@H]1C(=O)N(c2cccc(F)c2)c2cnc(Nc3ccc4[nH]ncc4c3)nc2N1C1CCCCC1 [Example 25, (7R)-8-cyclohexyl-5-(3-fluorophenyl)-2-(1H-indazol-5-ylamino)-7-methyl-7,8-dihydropteridin-6(5H)-one] | ≤ 100 |

Results, then the compound that gave them:

| IC50 [nM] | SMILES |
| --- | --- |
| > 1000 | CC(C)CCN1c2nc(N[C@H]3CC[C@@H](O)CC3)ncc2N(c2ccccc2)C(=O)C1C (relative stereo) [Example 12, 2-[(cis-4-hydroxycyclohexyl)amino]-7-methyl-8-(3-methylbutyl)-5-phenyl-7,8-dihydropteridin-6(5H)-one] |
| 100 to 1000 | CC(C)CCN1c2nc(Nc3ccc(CC(=O)N(C)C)cc3)ncc2N(c2ccccc2)C(=O)C1C (stereo not shown) [Example 6, N,N-dimethyl-2-(4-{[7-methyl-8-(3-methylbutyl)-6-oxo-5-phenyl-5,6,7,8-tetrahydropteridin-2-yl]amino}phenyl)acetamide] |
| > 1000 | CC(C)CCN1c2nc(Nc3ccc(CS(=O)(=O)N(C)C)cc3)ncc2N(c2ccccc2)C(=O)C1C (stereo not shown) [Example 8, N,N-dimethyl-1-(4-{[7-methyl-8-(3-methylbutyl)-6-oxo-5-phenyl-5,6,7,8-tetrahydropteridin-2-yl]amino}phenyl)methanesulfonamide] |
| > 1000 | COC(=O)c1ccc(Nc2ncc3c(n2)N(CCC(C)C)C(C)C(=O)N3c2ccccc2)cc1 (stereo not shown) [Example 9, methyl 4-{[7-methyl-8-(3-methylbutyl)-6-oxo-5-phenyl-5,6,7,8-tetrahydropteridin-2-yl]amino}benzoate] |
| 100 to 1000 | CC(C)N1c2nc(Nc3ccc4[nH]ncc4c3)ncc2N(c2ccccc2)C(=O)C1C (stereo not shown) [Example 13, 2-(1H-indazol-5-ylamino)-7-methyl-5-phenyl-8-(propan-2-yl)-7,8-dihydropteridin-6(5H)-one] |
| ≤ 100 | C[C@@H]1C(=O)N(c2ccncc2)c2cnc(Nc3ccc4[nH]ncc4c3)nc2N1C1CCCCC1 [Example 20, (7R)-8-cyclohexyl-2-(1H-indazol-5-ylamino)-7-methyl-5-(pyridin-4-yl)-7,8-dihydropteridin-6(5H)-one] |
| ≤ 100 | C[C@@H]1C(=O)N(c2ccc(Cl)cc2)c2cnc(Nc3ccc4[nH]ncc4c3)nc2N1C1CCCCC1 [Example 21, (7R)-5-(4-chlorophenyl)-8-cyclohexyl-2-(1H-indazol-5-ylamino)-7-methyl-7,8-dihydropteridin-6(5H)-one] |
| ≤ 100 | C[C@@H]1C(=O)N(c2ccc(F)cc2)c2cnc(Nc3ccc4[nH]ncc4c3)nc2N1C1CCCCC1 [Example 24, (7R)-8-cyclohexyl-5-(4-fluorophenyl)-2-(1H-indazol-5-ylamino)-7-methyl-7,8-dihydropteridin-6(5H)-one] |
| ≤ 100 | COc1ccc(N2C(=O)[C@@H](C)N(C3CCCCC3)c3nc(Nc4ccc5[nH]ncc5c4)ncc32)cc1 [Example 26, (7R)-8-cyclohexyl-2-(1H-indazol-5-ylamino)-5-(4-methoxyphenyl)-7-methyl-7,8-dihydropteridin-6(5H)-one] |
